{"source": "paper PMC7200681", "about": "“The calcitonin-like system is an ancient regulatory system of biomineralization” (Scientific Reports, 2020)", "key": {"[1]": {"system": "mussel CALCRIa", "test": "Calcium mobilization assay (apoaequorin bioluminescence), dose-response, HEK 293 cells expressing mussel CALCRIa", "assay_type": "cell-based, Mytilus galloprovincialis", "conditions": "calcium mobilization, HEK 293/apoaequorin, 1 μM to 0.01 nM", "source_text": "The complete sequence of the Mediterranean mussel CALCRIa was amplified using specific primers (Table 1) from cDNA of a tissue mixture (mantle, adductor muscle, gills, gonads) using a proofreading DNA polymerase (iProof BIORAD, Portugal) and cloned into the pGEMT-easy vector (PROMEGA, Spain). The Mediterranean mussel CALCRIIa transcript that was found in the mantle transcriptome was incomplete and lacked the N-terminus (by comparisons with the hard-shelled mussel homologue) and so the remaining sequence (from 1–393 bp) was deduced from the hard-shelled mussel homologue receptor and the receptor was synthesised and supplied by GENESCRIPT (USA). The complete transcripts for mussel CALCRIc, CALCRIIb and CALCRIIc were only found in the hard-shelled mussel mantle transcriptome and homologues were only found in the Mediterranean mussel genome as they were absent from the species mantle transcriptome and so they were also synthesised and supplied by GENESCRIPT (USA) using the hard-shelled mussel receptor sequences as template. The mussel CALCRIb transcript was incomplete and lacked both N and C-terminal regions and it was not possible to obtain the complete transcript either by searching both mussels mantle transcriptomes or the Mediterranean mussel genome and so it was not produced. All synthetized receptors were provided in the pUC57 cloning vector by the company and receptor codon usage was optimized to favour a high level of expression in mammalian cells.\nMammalian cell cultures and transfections followed the methodology described by[89],[90]. Mammalian HEK293 cells (ECACC, UK) were used and they were maintained in complete Dulbecco’s modified Eagle’s medium (DMEM, 4.5 g/l glucose, 110 mg/l sodium pyruvate and L-glutamine, SIGMA-ALDRICH, Spain) supplemented with 10% sterile foetal bovine serum (FBS), 0.1% penicillin: streptomycin antibiotic mix (10,000 U:10 mg/ml, Sigma) and 250 μg /ml sterile filtered 1:100 amphotericin B solution (SIGMA-ALDRICH) in a humid 5% CO2 incubator (HERAEUS, Portugal) at 37 °C. On the day prior to transfection, 2–3 × 10^5 HEK293 cells were seeded on 6 well plates (SARSTEDT, Portugal) and transfected with Fugene HD transfection reagent (2 DNA: 4 Fugene ratio, PROMEGA) following the manufacturer’s protocol. Seventy-two hours after transfection, 800 μg/ml of the antibiotic Geneticin (SIGMA-ALDRICH) was added to the medium to select and isolate stable receptor cell lines. Cell recovery was monitored daily and the medium was changed every two days until no cell death was observed. […]\n(§1) HEK293 cells stably expressing five mussel receptors (CALCRIa, CALCRIc, CALCRIIa, CALCRIIb and CALCRIIc) were stimulated with the two mussel peptides and the vertebrate (human and salmon) calcitonins. Receptor activation was assessed in vitro by measuring two intracellular signalling pathways: a) production of cAMP and b) mobilization of calcium (Ca^2+). The cellular response was initially assessed using 10 μM of each peptide. […]\nStable cell lines expressing the mussel receptors were transiently co-transfected with the mitochondrial targeted apo-aequorin protein cloned in pcDNA3.1. Two days after transfection cells were washed, counted and resuspended in 1 ml of DMEM /F12 Ham (without phenol red)/0.1% BSA supplemented with 2 µM coelenterazine (SIGMA-ALDRICH). […] The injector system of the Biotek Synergy 4 microplate reader (USA) was used to inject 50 µl of the cell suspensions into wells containing 50 μl of the diluted peptide in DMEM / F12 Ham / 0.1% BSA. […]"}, "[2]": {"system": "mussel CALCR-like (CALCRIa, CALCRIc, CALCRIIa, CALCRIIb and CALCRIIc)", "test": "Calcium mobilization, initial single-concentration test on the mussel receptors", "assay_type": "cell-based", "conditions": "10 µM peptide; % of carbachol (100uM) response; single experiment with six replicates (Supplementary Figure 7B)", "protocol": "Mammalian cell cultures and transfections followed the methodology described by[89],[90]. Mammalian HEK293 cells (ECACC, UK) were used and they were maintained in complete Dulbecco’s modified Eagle’s medium (DMEM, 4.5 g/l glucose, 110 mg/l sodium pyruvate and L-glutamine, SIGMA-ALDRICH, Spain) supplemented with 10% sterile foetal bovine serum (FBS), 0.1% penicillin: streptomycin antibiotic mix (10,000 U:10 mg/ml, Sigma) and 250 μg /ml sterile filtered 1:100 amphotericin B solution (SIGMA-ALDRICH) in a humid 5% CO2 incubator (HERAEUS, Portugal) at 37 °C. […] Cell recovery was monitored daily and the medium was changed every two days until no cell death was observed. […]\nas §1\nStable cell lines expressing the mussel receptors were transiently co-transfected with the mitochondrial targeted apo-aequorin protein cloned in pcDNA3.1. […] Peptide potency was determined as the total area under the activation curve. Data was calculated as a % of the highest response (100% activation). […]"}}, "note": "Bridge positions count the residues as written; N and C are the ends."}
{"substance": "H-CTWGGGMSDEMCSTVDIDEIQRSFQVIHDRNSP-NH2 (disulfide 1-12 (inferred)) [CALCIIa, Mediterranean mussel calcitonin-like mature peptide, 33 aa, synthesized with disulphide bond and C-terminal amidation]", "values": [{"measurement": "Activation of mussel CALCRIa in dose-response analysis (in words)", "setting": "[1]", "value": "not activated"}, {"measurement": "Stimulation of mussel CALCR-like, intracellular calcium (in words)", "setting": "[2]", "value": "elicited a high response"}]}
